Measurements: patent publication US6441175B1, “1-(N'-arylalkylaminoalkyl)aminoisoquinolines: a new class of dopamine receptor subtype” (Neurogen Corporation, priority 1997, dated 2002)

Legend:
[1] = test system: D4 receptors; assay: Assay for D2 and D4 receptor binding activity (COS cells, 3H-YM 09151-2), D4; set-up: species or system African Green monkey; details: recombinant D4 in COS cells; 0.5 nM 3H-YM 09151-2; read-out: D4 K1
Description: (§1) Assay For D2 And D4 Receptor Binding Activity
(§2) Pellets of COS cells containing recombinantly produced D2 or D4 receptors from African Green monkey were used for the assays. The sample is homogenized in 100 volumes (w/vol) of 0.05 M Tris HCl buffer at 4° C. and pH 7.4. The sample is then centrifuged at 30,000×g and resuspended and rehomogenized. The sample is then centrifuged as described and the final tissue sample is frozen until use. The tissue is resuspended 1:20 (wt/vol) in 0.05 M Tris HCl buffer containing 100 mM NaCl.
(§3) Incubations are carried out at 48° C. and contain 0.4 ml of tissue sample, 0.5 nM ^3H-YM 09151-2 and the compound of interest in a total incubation of 1.0 ml. Non-specific binding is defined as that binding found in the presence of […] spiperone; without further additions, nonspecific binding is less than 20% of total binding.

[2] = molecular target: T1, D2 receptors (Chlorocebus aethiops, UniProt P52702); assay: Assay for D2 and D4 receptor binding activity (COS cells, 3H-YM 09151-2), D2; set-up: species or system African Green monkey; details: recombinant D2 in COS cells; 0.5 nM 3H-YM 09151-2
T1 construct: expressed in transfected cells; host or cells: COS cells
T1 sequence (P52702 whole entry): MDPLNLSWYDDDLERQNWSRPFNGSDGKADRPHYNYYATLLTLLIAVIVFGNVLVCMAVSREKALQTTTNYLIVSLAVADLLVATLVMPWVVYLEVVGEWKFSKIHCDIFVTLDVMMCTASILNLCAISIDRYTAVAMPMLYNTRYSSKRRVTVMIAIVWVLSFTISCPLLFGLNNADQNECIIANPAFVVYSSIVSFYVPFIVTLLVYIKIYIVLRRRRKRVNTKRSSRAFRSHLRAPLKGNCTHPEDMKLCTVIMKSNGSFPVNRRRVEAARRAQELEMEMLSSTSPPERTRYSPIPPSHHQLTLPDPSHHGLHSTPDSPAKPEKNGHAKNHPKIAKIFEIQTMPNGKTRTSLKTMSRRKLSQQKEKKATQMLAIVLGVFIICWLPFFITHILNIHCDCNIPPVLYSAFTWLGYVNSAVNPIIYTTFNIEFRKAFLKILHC
Description: as §1, §2, §3

Row | Compound | melting point [°C] | Ki [1] [nM] | Ki [2] [nM]
1 | CN(CCCc1ccccc1)CCNC1=NCc2ccccc21 [Compound 3, 1-(N-[2-{N′-(3-phenylpropyl)-N′-methyl}aminoethyl])aminoisoindole dioxolate] | 175 to 177 |  | 
2 | 1-(1-[3-{(4-Pyridin-2-yl)piperazin-1-yl}]propyl)aminoisoquinoline hydrobromide [Compound 10] |  | 2 | 773
3 | 1-(1-[2-{(4-[5-Fluoropyrimidin-2-yl])piperazin-1-yl}]ethyl)aminoisoquinoline hydrobromide [Compound 9] |  | 13 | 1500
